Article PMC10295666 (Bioengineering, 2023)
Positions of bridges follow the written chain, without caps; N, C: chain ends. Residues, ends and D or L forms follow the SMILES beside them. No end group written: not given here.

Legend:
[1] = system: normal human liver cell line 7701; experiment: Toxicity on normal liver cells; type: cell-based; conditions: QSG-7701 cells
Procedure: Normal human liver cells QSG-7701 and Hepatocellular Carcinoma Cell lines 7721, Huh7, MHCC97H, MHCC97L, and HepG2 were all obtained from the Institute of Biomedical Sciences, Jinan University. All cells were cultured in DMEM medium (Gibco, Grand Island, NE, USA) supplemented with 10% fetal bovine serum (Gibco, Grand Island, NE, USA). The cell lines were incubated in a humidified atmosphere with 5% CO2 at 37 °C.
Cells in the logarithmic growth phase with good viability were seeded into 96-well plates at a density of 2500 cells per well and incubated for 24 h at 37 °C with 5% CO2. The old medium was removed, and the cells were starved with DMEM medium containing 0.5% FBS for 24 h. Peptides were diluted with 0.5% starved medium to different concentrations and added to each well with the same volume. The cells were then incubated for an additional 48 h at 37 °C. After removing the medium, 100 μL of CCK-8 working solution was added to each well, and the plate was incubated for 1 h at 37 °C with 5% CO2. Finally, the absorbance at 450 nm of each well was measured using a multifunctional microplate reader. Cell viability (%) was equal to (Asample − Ablank)/(Acontrol − Ablank) × 100%. […]
Cells in the logarithmic growth phase were seeded at a density of 1000 cells per well in 6-well plates and cultured for 24 h. […] After air-drying the plate, the colonies were photographed and counted.

[2] = serum obtained from healthy individuals; conditions: 37 °C, up to 1440 min
[3] = In vitro serum stability assay of peptides (HPLC-UV / LC-MS); type: in vitro ADME; conditions: human; serum from healthy individuals mixed with peptide 9:1, peptide 1 mg/mL, 37 °C, 0-1440 min, 10% TFA precipitation, HPLC-UV (C18) peak area
Procedure: The serum obtained from healthy individuals was centrifuged at a low speed and mixed with peptides at a ratio of 9:1 to achieve a peptide concentration of 1 mg/mL. The peptide–serum mixture was then incubated at 37 °C for different periods. After reaching the pre-determined time point (0, 10, 20, 30, 60, 120, 240, 480, 960, or 1440 min), pure trifluoroacetic acid was added to each sample to reach a final concentration of 10%. The mixture was then vortexed and centrifuged for 10 min at 13,000 rpm, and the supernatant (10 μL) was collected and stored in HPLC vials for analysis.
HPLC-UV analysis was performed using a C18 analytical column (Thermo Acclaim300 C18 LC ColuMns, 4.6 mm diameter, 150 mm length, Catalog #: 060266) and a Waters ACQUITY Arc Bio instrument, following the method shown in Table 1. The target peak was determined based on the retention time of pure peptides, and on this basis, detect peptides were degraded at different times and their peak area recorded to generate a degradation curve. The degradation rate of peptides was equal to (Areasample − Areablank)/(Areacontrol − Areablank) × 100%. The area of the blank was equal to the peak area detected after mixing peptides with ultrapure water at the same initial concentration. The signal-to-noise ratio of all collected data was greater than 10. […]

[4] = system: MHCC97L transplant tumors; experiment: MHCC97L subcutaneous xenograft model; conditions: 25 mg/kg tail vein injection, monitored every two days for 14 days, n = 4
Procedure: Male BALB/c-nude mice were purchased from Guangdong GemPharmatech Co., Ltd. These mice were fed with food and purified water at room temperature in the SPF laboratory. MHCC97L cells (0.1 mL of physiological saline containing 1 × 10^7 cells) were subcutaneously injected into the armpit of 5-week-old male BALB/c-nude mice. Tumor volume and weight were measured every 2 days, and tumor volume was calculated using the following formula: (short axis)^2 × (long axis)/2. When the tumor volume reached approximately 50 mm^3, these mice were weighed and randomly divided into 3 groups (n = 4): the model group, the SAIF group (25 mg/kg), and the ctSAIF group (25 mg/kg). SAIF and ctSAIF were administered via tail vein injection at a dose of 25 mg/kg. The peptide was dissolved in saline solution to 5 mg/mL, and the dosage volume of each mouse was calculated using the following formula: (25 mg/kg × body weight)/(5 mg/mL). After 14 days of treatment, the mice were sacrificed, and the tumors were collected for histopathological examination.

KEIDDLNLKVFDLKGKFKRPPLKRVRMSADAML [SAIF]
toxicity on normal human liver cell line 7701 [1]: no significant toxicity

KEIDDLNLKVFDLKGKFKRPPLKRVRMSADAML
fragment found [2]: tSAIF (KGKFKRPPLKRVRMSADAML), 2 h

CSCC[C@@H]1NC(=O)[C@H](C)NC(=O)[C@H](CC(=O)O)NC(=O)[C@H](C)NC(=O)[C@H](CO)NC(=O)[C@H](CCSC)NC(=O)[C@H](CCCNC(=N)N)NC(=O)[C@H](C(C)C)NC(=O)[C@H](CCCNC(=N)N)NC(=O)[C@H](CCCCN)NC(=O)[C@H](CC(C)C)NC(=O)[C@@H]2CCCN2C(=O)[C@@H]2CCCN2C(=O)[C@H](CCCNC(=N)N)NC(=O)[C@H](CCCCN)NC(=O)[C@H](Cc2ccccc2)NC(=O)[C@H](CCCCN)NC(=O)CNC(=O)[C@H](CCCCN)NC(=O)[C@@H](N)CSSC[C@@H](C(=O)O)NC(=O)[C@H](CC(C)C)NC1=O [ctSAIF] (H-CKGKFKRPPLKRVRMSADAMLC-OH; disulfide 1-22)
half-life at 1 mg/mL [3]: ~6 h | toxicity on normal human liver cell line 7701 [1]: no significant toxicity | weight of nude mice during treatment [4]: no significant changes
